Consider 2 compounds from patent US10583178B2, “Compositions comprising sulforaphane or a sulforaphane precursor and a mushroom extract or powder” (NUTRAMAX LABORATORIES, INC., priority 2012, dated 2020).

Assay [1] deals with Nad(P)H:quinone oxidoreductase 1 (NQO-1) gene expression. As to the kind of experiment: NQO-1 gene expression by quantitative RT-PCR in macrophage cell line RAW 264.7. Type of assay: cell-based. To be noted: 0.5 μM SFN, RAW 264.7, 24 hours. The procedure:
The following study was conducted to determine the effect of the combination of sulforaphane and a maitake mushroom extract containing 20% β-glucans on gene expression of Nad(P)H:quinone oxidoreductase 1 (NQO-1). NQO-1 encodes a protein that is able to metabolize estrogen quinones, preventing them from forming DNA adducts that cause mutations and ultimately carcinogenesis. An increase in NQO-1 expression is favorable for breast, colon, liver, lung, skin and prostate health.
In the study, the macrophage cell line RAW 264.7 was treated with DMSO (vehicle control), sulforaphane (SFN), maitake mushroom extract having about 20% beta-glucan content (Maitake), or the combination of sulforaphane and maitake mushroom extract, for 24 hours. […] Gene expression of NQO-1 gene expression was analyzed via quantitative RT-PCR. The results, which are depicted in FIG. 5, show the following: […]
In the study, the macrophage cell line RAW 264.7 was treated with DMSO (vehicle control), sulforaphane (SFN), shiitake mushroom extract having at least 20% alpha-glucan content (Shiitake), or the combination of sulforaphane and shiitake mushroom extract, for 24 hours. […] Gene expression of NQO-1 gene expression was analyzed via quantitative RT-PCR. […]

In assay [2] the test system is NAD(P)H:quinone oxidoreductase (NQO1). To be noted: oral administration, mammary epithelium; cited from earlier work.
For the next assay, the system named is heme oxygenase-1 (HO-1). To be noted: oral administration, mammary epithelium; cited from earlier work.
A further assay relates to myrosinase. As to the kind of experiment: Conversion of glucoraphanin to sulforaphane in Simulated Intestinal Fluid. To be noted: 38° C., 0.25 to 1.00 mmol/Liter, especially at earlier stages. Type of assay: biochemical, broccoli. The procedure: Simulated Intestinal Fluid (SIF) powder, a commercially supplied concentrate closely approximating the human intestinal content in terms of composition, pH and ionic strength, was used. The experiment utilized a USP Dissolution Apparatus 2 (paddles), where into six dissolution vessels 500 mL of Simulated Intestinal Fluid was dispensed, along with 150 mg of freeze-dried broccoli sprout powder as a source of myrosinase. […] Aliquots were withdrawn every 15 minutes, and assayed for sulforaphane.

In assay [3] the test system is broccoli sprout-derived myrosinase. Description: Consumption of glucoraphanin by myrosinase as a function of ascorbic acid concentration. Format: biochemical. To be noted: 38° C. The procedure:
About 250 mg of broccoli seed extract containing about 12% (w/w) glucoraphanin were subjected to hydrolysis by a fixed concentration of broccoli sprout-derived myrosinase in the presence of variable concentration of ascorbic acid, ranging from 0 to 600 μmoles/Liter. The reaction mixtures were thermostated at 38° C.; aliquots were withdrawn every 15 minutes for 60 minutes, and concentration of glucoraphanin determined chromatographically. The rate of glucoraphanin consumption was interpreted as the rate its conversion to sulforaphane. Graphical representation of glucoraphanin content reduction as a function of increasing ascorbic acid concentration results in a series of linear plots; the slopes of the linear regression lines reflect the rate of glucoraphanin consumption, in moles/minute. It is apparent that in the presence of 600 μmoles/Liter concentration of ascorbic acid, the reaction rate increased 13-fold relative to that which proceeded in the absence of modulatory effects of ascorbic acid.

Take `C[S+]([O-])CCCCN=C=S` (stereo not shown) [SFN, 1-isothiocyanato-4-methylsulfinylbutane]: in assay [1], the “Fold Increase in NQO-1 gene expression” value came out at 12.96 fold. Also, the “increase in NQO1 enzymatic activity” value in assay [2] is on record as 3 fold. The “elevated immunostaining of HO-1” value in the assay on heme oxygenase-1 (HO-1) is given as 4 fold.
Take `O=C1O[C@H]([C@@H](O)CO)C(O)=C1O` [Ascorbic Acid, ascorbic acid]: the “relation of sulforaphane yield to ascorbic acid concentration” value with myrosinase is recorded as “direct correlation”. Moreover, the glucoraphanin content in assay [3] (50 μM ascorbic acid, 0 min) came to 93.36 µmol; in assay [3] (50 μM ascorbic acid, 15 min), 89.20 µmol; in assay [3] (50 μM ascorbic acid, 30 min), 84.24 µmol; in assay [3] (50 μM ascorbic acid, 45 min), 80.30 µmol; in assay [3] (50 μM ascorbic acid, 60 min) it was 76.36 µmol; in assay [3] (125 μM ascorbic acid, 0 min), 93.36 µmol. Besides, the glucoraphanin content in assay [3] (125 μM ascorbic acid, 15 min) is 84.52 µmol; in assay [3] (125 μM ascorbic acid, 30 min), 75.92 µmol; in assay [3] (125 μM ascorbic acid, 45 min), 68.09 µmol; in assay [3] (125 μM ascorbic acid, 60 min), 59.41 µmol; in assay [3] (250 μM Filtered ascorbic acid, 0 min), 93.36 µmol; in assay [3] (250 μM Filtered ascorbic acid, 15 min), 86.31 µmol. For the same compound, the glucoraphanin content in assay [3] (250 μM Filtered ascorbic acid, 30 min) came to 79.44 µmol; in assay [3] (250 μM Filtered ascorbic acid, 45 min), 71.94 µmol; in assay [3] (250 μM Filtered ascorbic acid, 60 min), 65.18 µmol; in assay [3] (250 μM ascorbic acid, 0 min), 93.36 µmol; in assay [3] (250 μM ascorbic acid, 15 min), 80.95 µmol; in assay [3] (250 μM ascorbic acid, 30 min), 69.06 µmol. The glucoraphanin content in assay [3] (250 μM ascorbic acid, 45 min) turned out to be 57.63 µmol; in assay [3] (250 μM ascorbic acid, 60 min) it was 45.76 µmol; in assay [3] (400 μM ascorbic acid, 0 min) it was 93.36 µmol; in assay [3] (400 μM ascorbic acid, 15 min) it was 78.32 µmol; in assay [3] (400 μM ascorbic acid, 30 min), 62.78 µmol; in assay [3] (400 μM ascorbic acid, 45 min), 47.67 µmol. In addition, the glucoraphanin content in assay [3] (400 μM ascorbic acid, 60 min) worked out at 33.15 µmol; in assay [3] (600 μM ascorbic acid, 0 min), 93.36 µmol; in assay [3] (600 μM ascorbic acid, 15 min) it was 75.02 µmol; in assay [3] (600 μM ascorbic acid, 30 min), 55.66 µmol; in assay [3] (600 μM ascorbic acid, 45 min), 37.50 µmol; in assay [3] (600 μM ascorbic acid, 60 min), 22.09 µmol.
